Results published in PMC3411110, “AdpA, key regulator for morphological differentiation regulates bacterial chromosome replication” (Open Biology, 2012).

Experiments:
[1] = target: T1, AdpA (AdpAHis6) (Streptomyces coelicolor, UniProt Q9L062); assay: SPR of AdpA on immobilised oriC DNA; glutaraldehyde cross-linking of AdpA-oriC complexes; conditions: 3 mM ATP in SPR, increasing ATP in cross-linking with 100 nM AdpA; HBS200 buffer pH 7.4, 10 mM MgOAc; 283-bp oriC fragment; inhibits DNA binding; direct ATP binding not measured
[2] = target: DnaA (DnaAHis6) (Streptomyces coelicolor, UniProt P27902); assay: SPR of DnaA on immobilised oriC DNA with and without ATP; conditions: 3 mM ATP; HBS200 buffer pH 7.4, 10 mM MgOAc; 283-bp oriC fragment; promotes DNA binding; direct ATP binding not measured
[3] = target: T1, AdpA (AdpAHis6); assay: effect on AdpA-oriC complex formation; conditions: inhibits DNA binding; direct ADP binding not measured

T1 sequence (Q9L062 entry or part of it): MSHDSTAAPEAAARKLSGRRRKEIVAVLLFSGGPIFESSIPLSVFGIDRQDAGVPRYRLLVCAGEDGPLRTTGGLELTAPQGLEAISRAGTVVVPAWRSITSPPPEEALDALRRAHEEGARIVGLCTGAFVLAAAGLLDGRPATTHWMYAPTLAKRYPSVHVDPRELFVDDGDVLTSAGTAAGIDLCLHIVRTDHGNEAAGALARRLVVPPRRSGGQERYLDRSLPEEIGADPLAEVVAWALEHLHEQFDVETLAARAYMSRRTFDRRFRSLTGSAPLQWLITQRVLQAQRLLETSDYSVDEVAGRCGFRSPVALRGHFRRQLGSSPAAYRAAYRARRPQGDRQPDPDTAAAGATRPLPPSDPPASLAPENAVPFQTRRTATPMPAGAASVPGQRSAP
DnaA (DnaAHis6), sequence (P27902 whole entry, the tested form may be a part): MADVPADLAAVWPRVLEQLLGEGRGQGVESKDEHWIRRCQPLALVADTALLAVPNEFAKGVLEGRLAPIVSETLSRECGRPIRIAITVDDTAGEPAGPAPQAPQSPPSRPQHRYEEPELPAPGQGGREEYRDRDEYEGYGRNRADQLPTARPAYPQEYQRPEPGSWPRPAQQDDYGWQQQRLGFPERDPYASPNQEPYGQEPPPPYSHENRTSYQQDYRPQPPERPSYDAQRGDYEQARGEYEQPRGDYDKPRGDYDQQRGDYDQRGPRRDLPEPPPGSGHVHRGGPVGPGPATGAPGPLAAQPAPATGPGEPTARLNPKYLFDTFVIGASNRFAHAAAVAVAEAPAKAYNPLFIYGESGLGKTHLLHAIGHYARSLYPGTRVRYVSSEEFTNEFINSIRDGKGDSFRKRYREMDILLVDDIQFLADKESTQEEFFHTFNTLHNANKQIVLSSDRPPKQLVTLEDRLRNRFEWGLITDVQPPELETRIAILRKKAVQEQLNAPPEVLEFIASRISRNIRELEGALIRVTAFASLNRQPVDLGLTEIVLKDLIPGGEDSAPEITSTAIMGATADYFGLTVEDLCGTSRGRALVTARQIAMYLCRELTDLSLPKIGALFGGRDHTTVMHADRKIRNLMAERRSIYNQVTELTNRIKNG

| Compound | SPR of AdpA on immobilised oriC DNA; glutaraldehyde cross-linking of AdpA-oriC c [1] | SPR of DnaA on immobilised oriC DNA with and without ATP [2] | effect on AdpA-oriC complex formation [3] |
| --- | --- | --- | --- |
| Nc1ncnc2c1ncn2[C@@H]1O[C@H](COP(=O)(O)OP(=O)(O)OP(=O)(O)O)[C@@H](O)[C@H]1O [ATP] | ATP at the same concentration used for DnaA-binding experiments nearly completely abolished binding of AdpA | binds DnaA box(es), particularly weak ones, more efficiently in the presence of ATP |  |
| Nc1ncnc2c1ncn2[C@@H]1O[C@H](COP(=O)(O)OP(=O)(O)O)[C@@H](O)[C@H]1O [ADP] |  |  | a similar effect was also observed in the presence of ADP |
